For data set [1], the system named is lipofuscin rich senescent cells, induced Saos2-p21WAF1/Cip1 Tet-ON cells. As to the kind of experiment: Immunohistochemistry staining in induced Saos2-p21WAF1/Cip1 Tet-ON cellular system. To be noted: FIG. 13. The class given is cell-based, human. The protocol: • 1. Compound (LG13) • 2. 100% ethanol (100% EtOH) • 3. Parafilm • 4. Fritted glass filter of medium porosity • 5. Airtight Dye Container 2.2.2 General Procedure: • 1. Dissolve 40 mg of the compound (LG13) in 7.4 ml 100% EtOH in a glass beaker and cover it with parafilm. • 2. Incubate at 56° C. in a waterbath for 120 min until the compound is completely dissolved. 2.3. General Method for Compound (LG13) Staining 2.3.1 Materials: • 1. Xylene • 2. […] Syringe • 4. 13 mm filter, membrane 0.22 μm • 5. Soft paper (dry or dipped in ethanol) • 6. Anti-biotin antibody ([Hyb-8] ab201341, Abcam) • 7. Ultravision Quanto Detection System HRP DAB kit (Cat no: TL-125-QHD) • 8. Glycerol (Sigma-Aldrich) • 9. Tris Buffered Saline (TBS; 10×): 1.5 M NaCl, 0.1 M Tris-HCl, pH 7.4. Store at 4° C. • 10. 0.5% Triton X/TBS: 0.5 ml Triton X diluted in 99.5 ml TBS • 11. Mounting media Glycergel (DakoCytomation). • 12. Light Microscope • 13. Anti-p21^WAF1/Cip1 mouse primary antibody [(F-5)(sc-6246) Santa-Cruz] • 14. Anti-p16^INK4A mouse primary antibody [(sc-74401) Santa-Cruz] • 15. Anti-Ki67 rabbit polyclonal antibody [ab16667, Abcam] • 16. Secondary goat anti-mouse antibody Alexa Fluor 568 conjugated [Thermo Fisher Scientific (Cat no: A-11004)] • 17. DAPI (4′,6-Diamidino-2-Phenylindole, Dihydrochloride) [Thermo Fisher Scientific (Cat no: D1306)] • 18. Fluorescence microscope 2.3.2 General Procedures: 2.3.2.1 General Staining Protocol for Cells Mounted on Coverslips • 1. Wash ×1 in TBS for 5 min at RT. • 2. Block the endogenous hydrogen peroxidase, using the UltraVision Hydrogen Peroxide Block included in the Ultravision Quanto Detection System HRP DAB kit (Cat no: TL-125-QHD) for 10 min at RT and in dark conditions. • 3. Wash ×2 in TBS for 30 sec and ×1 for 5 min at RT. • 4. Wash ×1 in EtOH 50% for 5 min at RT. • 5. Wash ×1 EtOH 70% for 5 min at RT. • 6. […] The staining reaction is monitored under the light microscope until detection of the signal (average time 5-8 min). • 8. […] The staining reaction is monitored under the light microscope until detection of the dark brown signal (average time 30 sec-1 min) at RT 1. • 20. […]

Data set [2] relates to senescent cells (lipofuscin). The following applies: Georgakopoulou et al, 2013; cited from earlier work.
The test system of data set [3] is lipofuscin. To be noted: Georgakopoulou et al., 2013; cited from earlier work.
Data set [4] relates to senescent cells in irradiated human laryngeal tumors and mouse lung adenomas. In words: Histochemical staining of paraffin embedded, formalin fixed tissue sections (same method as for SBB). The following applies: FFPE sections of irradiated human laryngeal tumors and mouse lung adenomas; dye in 70% ethanol, 10 min. An excerpt: In the following comparative example 1 the histochemical dye SBB was used to detect senescent cells in tissue sections by the histochemical method previously described [Georgakopoulou et al, Aging (Albany N.Y.) 2013].
Tissue sections were obtained from paraffin embedded, formalin fixed: (a) irradiated human laryngeal tumors and (b) mouse lung adenomas, with established presence of senescent cells. Subsequently, they were immobilized on glass microscopy slides by standard procedures and processed as follows: • a. Deparaffinization for 5 min at room temperature in xylene. • b. Gradual rehydration in solutions of descending concentration of ethanol (100%, 80%, 70%, 50% v/v) and finally in TBS (Tris-buffered saline) or PBS (Phosphate-buffered saline) solution. • c. The SBB dye was diluted in 70% ethanol (v/v), filtered and then applied on tissue sections for 10 min. • d. Quick wash in 50% (v/v) ethanol. • e. Transfer and wash in TBS or PBS solution. • f. Counterstain with Hematoxylin or Nuclear Fast Red, followed by mounting with glycerol and sealed with a cover slip. • g. Microscopy observation. […]

The subject of data set [5] is senescent cells in biological systems with established senescence. In words: Quantitative analysis and concordance of SA-b-gal, SBB and GL13 staining. To be noted: FIG. 15.
Data set [6] can be described thus: Ethanol solubility. The class given is physicochemical.
Data set [7] has as its system HeLa cancer cells and near normal Li-Fraumeni fibroblasts. In words: False-positive studies (cell confluency, serum starvation). The class given is cell-based, human. The following applies: compared with SA-b-gal, FIGS. 17 and 18. An excerpt:
The in vitro models comprised seven cellular systems. […] The same cellular system was used at early passages that underwent SIPS upon y-irradiation and was compared in relation to non-irradiated counterparts. Another set of models comprised two inducible Saos2 Tet-ON osteosarcoma cell lines carrying p53 and p21^WAF1/Cip1, respectively, two well established effectors of senescence (Georgakopoulou et al., 2013; Galanos et al., 2016). Finally, the U2OS-E2F1 ER, U205-Cdt1 Tet-ON and HBECs-Cdc6 Tet-ON inducible systems that undergo SIPS due to oncogenic stress signals were also utilized (Petrakis et al., 2016; Liontos et al., 2007; Liontos et al., 2009). Parental cell lines were obtained either directly from ATCC or from collaborating laboratories that generated them. In addition, the human cancer cell line HeLa and near normal Li-Fraumeni fibroblasts (Galanos et al., 2016) were also employed as control cell lines for the specificity of staining of the SBB compounds.

Take `CC1(CCCOC(=O)CCCC[C@H]2SC[C@H]3NC(=O)N[C@H]32)Nc2cccc3c(/N=N/c4ccc(/N=N/c5ccccc5)c5ccccc45)ccc(c23)N1` (stereo partly drawn) [LG56, 3-(2-Methyl-6-((E)-(4-((E)-phenyldiazenyl)naphthalen-1-yl)diazenyl)-2,3-dihydro-1H-perimidin-2-yl)propyl 5-((3aR,4R,6aS)-2-oxohexahydro-1H-thieno[3,4-d]imidazol-4-yl)pentanoate]: the “detection of lipofuscin rich senescent cells by immunohistochemistry staining” value (“detection” below) in data set [1] is “detect robustly lipofuscin rich senescent cells”.
With `CC1(C)Nc2cccc3c(/N=N/c4ccc(/N=N/c5ccc(CCOC(=O)CCCC[C@H]6SC[C@H]7NC(=O)N[C@H]76)cc5)c5ccccc45)ccc(c23)N1` [LG52, 4-((E)-(4-((E)-(2,2-Dimethyl-2,3-dihydro-1H-perimidin-6-yl)diazenyl)naphthalen-1-yl)diazenyl)phenethyl 5-((3aR,4R,6aS)-2-oxohexahydro-1H-thieno[3,4-d]imidazol-4-yl)pentanoate], the “detection” value in data set [1] is listed as “detect robustly lipofuscin rich senescent cells”.
Take `CC1(C)Nc2cccc3c(/N=N/c4ccc(/N=N/c5ccccc5)c5ccccc45)ccc(c23)N1` [SBB, Sudan Black B]: the “selectivity of lipofuscin stain for senescent cells” value in data set [2] is given as “highly selective for the detection of senescent cells”. For the same compound, the “effect of staining on lipofuscin autofluorescence” value in data set [3] was “quenched”. Also, in data set [4], the “histochemical staining of senescent cells” value is recorded as “senescent cells are clearly stained”. The “specificity compared among SA-b-gal, SBB and GL13 staining” value in data set [5] is “concordance of specificity”. In addition, the ethanol solubility result in data set [6] is on record as “ethanol solubility problems”. The “false-positive staining due to serum starvation and cell confluency” value in data set [7] is given as “deprived of the false-positive staining disadvantages”.
Take `CC1(CCOC(=O)CCCC[C@H]2SC[C@H]3NC(=O)N[C@H]32)Nc2cccc3c(/N=N/c4ccc(/N=N/c5ccccc5)c5ccccc45)ccc(c23)N1` (stereo partly drawn) [LG39, 2-(2-Methyl-6-((E)-(4-((E)-phenyldiazenyl)naphthalen-1-yl)diazenyl)-2,3-dihydro-1H-perimidin-2-yl)ethyl 5-((3aR,4R,6aS)-2-oxohexahydro-1H-thieno[3,4-d]imidazol-4-yl)pentanoate]: the “detection” value in data set [1] is “detect robustly lipofuscin rich senescent cells”.

(Values after US11034839B2, “Compounds, linked with haptens, for the detection of senescent cells” (THE UNIVERSITY OF MANCHESTER, priority 2016, dated 2021).)
